Assay results reported in the supplement of paper PMC10307832.

Columns and labels:
Test in all cases: relative viability (nuclei count vs DMSO), 5 days (fraction); higher = more cells survive
[1] = test system: NCI-H441
Summary of the method: (§1)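 Lung cancer cell lines were seeded in 1536-well plates and dosed by pin tool the next day, with either a single drug or a fixed anchor-drug dose combined with five library-drug doses (not always all listed) spaced in √10 steps. Five days later, one step fixed the cells and stained their nuclei (final 0.05% Triton X-100, 1% formaldehyde, 1 ug/ml Hoechst), and nuclei were counted on 4× images. Relative viability is the nuclei count in treated wells divided by the count in vehicle wells, and each value is the median of duplicate plates.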

[2] = test system: 201T
Summary of the method: as §1

[3] = test system: SK-LU-1
Summary of the method: as §1

[4] = test system: NCI-H650
Summary of the method: as §1

[5] = test system: LCLC-97TM1
Summary of the method: as §1

[6] = test system: NCI-H1355
Summary of the method: as §1

[7] = test system: SW 1573
Summary of the method: as §1

[8] = test system: NCI-H1563
Summary of the method: as §1

[9] = test system: NCI-H1651
Summary of the method: as §1

[10] = test system: NCI-H838
Summary of the method: as §1

[11] = test system: NCI-H322M
Summary of the method: as §1

Cc1cn(-c2cc(NC(=O)c3ccc(C)c(Nc4nccc(-c5cccnc5)n4)c3)cc(C(F)(F)F)c2)cn1 [Nilotinib] + CCNC(=O)c1noc(-c2cc(C(C)C)c(O)cc2O)c1-c1ccc(CN2CCOCC2)cc1 [Luminespib] (partner 0.01 µM)
relative viability ([1]; first compound 0.001 µM): 0.33 | relative viability ([1]; first compound 0.003162 µM): 0.375 | relative viability ([1]; first compound 0.01 µM): 0.322 | relative viability ([1]; first compound 0.03162 µM): 0.413 | relative viability ([1]; first compound 0.1 µM): 0.304 | relative viability ([2]; first compound 0.003162 µM): 1.13 | relative viability ([2]; first compound 0.01 µM): 1.16 | relative viability ([2]; first compound 0.03162 µM): 1.11 | relative viability ([2]; first compound 0.1 µM): 1.03 | relative viability ([3]; first compound 0.001 µM): 0.19 | relative viability ([3]; first compound 0.003162 µM): 0.212 | relative viability ([3]; first compound 0.03162 µM): 0.215 | relative viability ([3]; first compound 0.1 µM): 0.217 | relative viability ([4]; first compound 0.001 µM): 0.687 | relative viability ([4]; first compound 0.003162 µM): 0.564 | relative viability ([4]; first compound 0.01 µM): 0.792 | relative viability ([4]; first compound 0.03162 µM): 0.742 | relative viability ([4]; first compound 0.1 µM): 0.79 | relative viability ([5]; first compound 0.001 µM): 0.795 | relative viability ([5]; first compound 0.003162 µM): 0.868 | relative viability ([5]; first compound 0.01 µM): 0.741 | relative viability ([5]; first compound 0.03162 µM): 0.607 | relative viability ([5]; first compound 0.1 µM): 0.641 | relative viability ([6]; first compound 0.001 µM): 0.542 | relative viability ([6]; first compound 0.003162 µM): 0.7 | relative viability ([6]; first compound 0.01 µM): 0.644 | relative viability ([6]; first compound 0.03162 µM): 0.549 | relative viability ([6]; first compound 0.1 µM): 0.654 | relative viability ([7]; first compound 0.001 µM): 0.397 | relative viability ([7]; first compound 0.003162 µM): 0.711 | relative viability ([7]; first compound 0.01 µM): 0.277 | relative viability ([7]; first compound 0.03162 µM): 0.163 | relative viability ([7]; first compound 0.1 µM): 0.144 | relative viability ([8]; first compound 0.001 µM): 0.546 | relative viability ([8]; first compound 0.003162 µM): 0.475 | relative viability ([8]; first compound 0.01 µM): 0.534 | relative viability ([8]; first compound 0.03162 µM): 0.51 | relative viability ([8]; first compound 0.1 µM): 0.441 | relative viability ([9]; first compound 0.001 µM): 0.78 | relative viability ([9]; first compound 0.003162 µM): 0.912 | relative viability ([9]; first compound 0.01 µM): 0.902 | relative viability ([9]; first compound 0.03162 µM): 0.711 | relative viability ([9]; first compound 0.1 µM): 0.753 | relative viability ([10]; first compound 0.001 µM): 0.24 | relative viability ([10]; first compound 0.003162 µM): 0.276 | relative viability ([10]; first compound 0.01 µM): 0.308 | relative viability ([10]; first compound 0.03162 µM): 0.273 | relative viability ([10]; first compound 0.1 µM): 0.208 | relative viability ([11]; first compound 0.001 µM): 1.08 | relative viability ([11]; first compound 0.003162 µM): 0.481 | relative viability ([11]; first compound 0.01 µM): 1.08 | relative viability ([11]; first compound 0.03162 µM): 0.797 | relative viability ([11]; first compound 0.1 µM): 1.02
